Counter-ions that a name gives are not always drawn. Like-named read-outs stand apart in the source and are kept apart here.
Experiments:
[1] = molecular target: IRAK4 enzyme (Homo sapiens (Human), UniProt Q9NWZ3); assay: biochemical; format: biochemical
[2] = system: TNFα; assay: cells; format: cell-based, human; settings: Homo sapiens, Monocyte, read-out: EC50 TNF
[3] = IRAK4 enzyme, TR-FRET (HTRF), 500 μM ATP
[4] = LPS-stimulated human monocytes, TNFα content
[5] = IRAK4 enzyme, TR-FRET, 500 μM ATP
[6] = LPS-stimulated human monocytes, TNFα by TR-FRET

Sequence of IRAK4 enzyme (Q9NWZ3 whole entry): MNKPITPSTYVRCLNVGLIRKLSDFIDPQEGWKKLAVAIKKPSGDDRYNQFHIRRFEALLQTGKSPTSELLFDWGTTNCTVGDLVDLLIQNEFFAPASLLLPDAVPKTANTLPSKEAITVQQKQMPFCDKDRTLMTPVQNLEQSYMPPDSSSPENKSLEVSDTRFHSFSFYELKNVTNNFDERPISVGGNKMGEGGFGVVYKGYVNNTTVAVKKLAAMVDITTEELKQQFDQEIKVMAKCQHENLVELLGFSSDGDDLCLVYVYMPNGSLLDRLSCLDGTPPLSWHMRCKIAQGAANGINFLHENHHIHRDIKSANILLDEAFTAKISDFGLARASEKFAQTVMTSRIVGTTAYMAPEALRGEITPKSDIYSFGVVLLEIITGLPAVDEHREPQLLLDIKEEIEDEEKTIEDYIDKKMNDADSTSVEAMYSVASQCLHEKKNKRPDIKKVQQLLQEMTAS

Row | SMILES | IC50 [1, 3] | EC50 [2, 4] | IC50 [1, 5] | further results
1 | CC(C)(O)[C@H](F)CNC(=O)c1cnc(-c2ccc3cc(C#N)cnn23)cc1NC12CCC(c3cnco3)(CC1)OC2 [Example 633, (R)-6-(3-cyanopyrrolo[1,2-b]pyridazin-7-yl)-N-(2-fluoro-3-hydroxy-3-methylbutyl)-4-((1-(oxazol-5-yl)-2-oxabicyclo[2.2.2]octan-4-yl)amino) nicotinamide] | < 1 nM | 2 nM | – | –
2 | CNC(=O)c1cnc(-c2ccc3cc(C#N)cnn23)cc1NC12CCC(NC(=O)OC)(CC1)CC2 [Example 486, methyl (4-((2-(3-cyano-pyrrolo[1,2-b]pyridazin-7-yl)-5-(methylcarbamoyl)pyridin-4-yl)amino)bicyclo[2.2.2]octan-1-yl)carbamate] | 1 nM | 64 nM | – | –
3 | CNC(=O)C1CCC(Nc2cc(-c3ccc4cc(C#N)cnn34)ncc2C(=O)NC[C@@H](F)C(C)(C)O)CC1 (stereo partly drawn) [Example 182, 6-(3-cyanopyrrolo[1,2-b]pyridazin-7-yl)-N-((R)-2-fluoro-3-hydroxy-3-methylbutyl)-4-(((1r,4R)-4-(methylcarbamoyl)cyclohexyl)amino) nicotinamide] | – | 70 nM | 1 nM | –
4 | CC(C)(O)[C@H](F)CNC(=O)c1cnc(-c2ccc3cc(C#N)cnn23)cc1Nc1ccncc1 [Example 593, (R)-6-(3-cyano-pyrrolo[1,2-b]pyridazin-7-yl)-N-(2-fluoro-3-hydroxy-3-methylbutyl)-4-(pyridin-4-ylamino) nicotinamide] | 2 nM | 143 nM | – | –
5 | CC(C)(O)[C@H](F)CNC(=O)c1cnc(-c2ccc3cc(C#N)cnn23)cc1N[C@H]1CCOC[C@@H]1F [Example 151, 6-(3-cyanopyrrolo[1,2-b]pyridazin-7-yl)-N-((R)-2-fluoro-3-hydroxy-3-methylbutyl)-4-(((3R,4S)-3-fluorotetrahydro-2H-pyran-4-yl)amino) nicotinamide] | – | 96 nM | < 1 nM | –
6 | CC(C)(O)[C@H](F)CNC(=O)c1cnc(-c2ccc3cc(C#N)cnn23)cc1NC1CC2(CNC2)C1 [Example 895, (R)-4-(2-azaspiro[3.3]heptan-6-ylamino)-6-(3-cyanopyrrolo[1,2-b]pyridazin-7-yl)-N-(2-fluoro-3-hydroxy-3-methyl-butyl)nicotinamide] | – | – | 2 nM | EC50 [2, 6]: 1000 nM
7 | COC1CN(C(=O)C23CCC(Nc4cc(-c5ccc6cc(C#N)cnn56)ncc4C(=O)NC[C@@H](F)C(C)(C)O)(CC2)CC3)C1 [Example 396, (R)-6-(3-cyanopyrrolo[1,2-b]pyridazin-7-yl)-N-(2-fluoro-3-hydroxy-3-methylbutyl)-4-((4-(3-methoxyazetidine-1-carbonyl)bicyclo[2.2.2]octan-1-yl)amino) nicotinamide] | – | 24 nM | 1 nM | –
8 | COCC1CCC1CNc1cc(-c2ccc3cc(C#N)cnn23)ncc1C(=O)NC[C@@H](F)C(C)(C)O (stereo partly drawn) [Example 713, 6-(3-cyanopyrrolo[1,2-b]pyridazin-7-yl)-N-((R)-2-fluoro-3-hydroxy-3-methyl-butyl)-4-(((2-(methoxy-methyl)cyclobutyl)methyl)amino)nicotinamide] | 2 nM | 264 nM | – | –
9 | CC(C)(O)[C@H](F)CNC(=O)c1cnc(-c2ccc3cc(C#N)cnn23)cc1Nc1ccc(-c2cocn2)cc1 [Example 628, (R)-6-(3-cyanopyrrolo[1,2-b]pyridazin-7-yl)-N-(2-fluoro-3-hydroxy-3-methyl-butyl)-4-((4-(oxazol-4-yl)phenyl)amino) nicotinamide] | < 1 nM | 26 nM | – | –
10 | CC(C)(O)[C@H](F)CNC(=O)c1cnc(-c2ccc3cc(C#N)cnn23)cc1N[C@H]1CC[C@H](N)CC1 [Example 316, 4-(((1r,4R)-4-aminocyclohexyl)amino)-6-(3-cyanopyrrolo[1,2-b]pyridazin-7-yl)-N-((R)-2-fluoro-3-hydroxy-3-methylbutyl)nicotinamide hydrochloride] | – | – | – | IC50 [1]: < 1 nM; EC50 [2]: 136 nM
11 | C[C@]1(O)C[C@@H](Nc2cc(-c3ccc4cc(C#N)cnn34)ncc2C(=O)NCC#N)C1 [Example 388, N-(cyanomethyl)-6-(3-cyanopyrrolo[1,2-b]pyridazin-7-yl)-4-(((1s,3s)-3-hydroxy-3-methylcyclobutyl)amino) nicotinamide] | – | 96 nM | 1 nM | –
12 | CO[C@@H]1CCC[C@H](Nc2cc(-c3ccc4cc(C#N)cnn34)ncc2C(=O)NC[C@@H](F)C(C)(C)O)C1 [Example 62, 6-(3-cyanopyrrolo[1,2-b]pyridazin-7-yl)-N-((R)-2-fluoro-3-hydroxy-3-methylbutyl)-4-(((1S,3R)-3-methoxycyclohexyl)amino) nicotinamide] | – | 83 nM | < 1 nM | –
13 | CC(C)(O)[C@H](F)CNC(=O)c1cnc(-c2ccc3cc(C#N)cnn23)cc1NC1CCCC(F)C1 (stereo partly drawn) [Example 509, 6-(3-cyanopyrrolo[1,2-b]pyridazin-7-yl)-N-((R)-2-fluoro-3-hydroxy-3-methylbutyl)-4-(((1S)-3-fluorocyclohexyl)amino) nicotinamide] | < 1 nM | 66 nM | – | –
14 | CC(C)Nc1cc(-c2ccc3cc(C#N)cnn23)ncc1C(=O)N[C@@H]1CCOC[C@H]1F [Example 323, 6-(3-cyanopyrrolo[1,2-b]pyridazin-7-yl)-N-((3S,4R)-3-fluoro-tetrahydro-2H-pyran-4-yl)-4-(isopropylamino) nicotinamide] | – | 187 nM | 5 nM | –
15 | CC(C)Nc1cc(-c2ccc3cc(C#N)cnn23)ncc1C(=O)NC1CC1CO (single isomer, unassigned) [Example 18, 6-(3-cyanopyrrolo[1,2-b]pyridazin-7-yl)-N-(2-(hydroxymethyl)cyclopropyl)-4-(isopropylamino)nicotinamide] | – | 757 nM | 9 nM | –
16 | CC(C)Nc1cc(-c2ccc3cc(C#N)cnn23)ncc1C(=O)N[C@H]1CC[C@H](NC(=O)C(F)(F)F)CC1 [Example 127, 6-(3-cyanopyrrolo[1,2-b]pyridazin-7-yl)-4-(isopropyl-amino)-N-((1r,4r)-4-(2,2,2-trifluoroacetamido)cyclohexyl)nicotinamide] | – | 112 nM | < 1 nM | –
17 | COCCNC(=O)CNC(=O)c1cnc(-c2ccc3cc(C#N)cnn23)cc1NC12CCC(O)(CC1)CC2 [Example 786, 6-(3-cyanopyrrolo[1,2-b]pyridazin-7-yl)-4-((4-hydroxybicyclo[2.2.2]octan-1-yl)amino)-N-(2-((2-methoxyethyl)amino)-2-oxoethyl)nicotinamide] | 2 nM | 323 nM | – | –
18 | CC(C)(O)[C@H](F)CNC(=O)c1cnc(-c2ccc3cc(C#N)cnn23)cc1Nc1cncc(F)c1 [Example 600, (R)-6-(3-cyano-pyrrolo[1,2-b]pyridazin-7-yl)-N-(2-fluoro-3-hydroxy-3-methylbutyl)-4-((5-fluoropyridin-3-yl)amino)nicotinamide] | < 1 nM | 72 nM | – | –
19 | CC(C)(O)[C@H](F)CNC(=O)c1cnc(-c2ccc3cc(C#N)cnn23)cc1Nc1ccc(-n2cncn2)nc1 [Example 766, (R)-4-((6-(1H-1,2,4-triazol-1-yl)pyridin-3-yl)amino)-6-(3-cyanopyrrolo[1,2-b]pyridazin-7-yl)-N-(2-fluoro-3-hydroxy-3-methyl-butyl)nicotinamide] | < 1 nM | 38 nM | – | –
20 | COC(=O)N1CC(n2cc(Nc3cc(-c4ccc5cc(C#N)cnn45)ncc3C(=O)NC[C@@H](F)C(C)(C)O)cn2)C1 [Example 231, (R)-methyl 3-(4-((2-(3-cyanopyrrolo[1,2-b]pyridazin-7-yl)-5-((2-fluoro-3-hydroxy-3-methylbutyl)carbamoyl)pyridin-4-yl)amino)-1H-pyrazol-1-yl)azetidine-1-carboxylate] | – | 61 nM | < 1 nM | –
21 | CC(C)(O)[C@H](F)CNC(=O)c1cnc(-c2ccc3cc(C#N)cnn23)cc1Nc1cnc(N2CC3CC(C2)O3)nc1 [Example 920, 4-((2-(6-oxa-3-aza-bicyclo[3.1.1]heptan-3-yl)pyrimidin-5-yl)amino)-6-(3-cyanopyrrolo[1,2-b]pyridazin-7-yl)-N-((R)-2-fluoro-3-hydroxy-3-methyl-butyl)nicotinamide] | – | – | < 1 nM | EC50 [2, 6]: 8 nM
22 | COC(=O)NC[C@H]1C[C@H](Nc2cc(-c3ccc4cc(C#N)cnn34)ncc2C(=O)NC[C@@H](F)C(C)(C)O)C1 [Example 545, Methyl (((1R,3r)-3-((2-(3-cyanopyrrolo[1,2-b]pyridazin-7-yl)-5-(((R)-2-fluoro-3-hydroxy-3-methylbutyl)carbamoyl)pyridin-4-yl)amino)cyclobutyl)methyl)carbamate] | < 1 nM | 5 nM | – | –
23 | CC(C)COC(=O)N[C@H]1CC[C@H](Nc2cc(-c3ccc4cc(C#N)cnn34)ncc2C(=O)NC[C@@H](F)C(C)(C)O)CC1 [Example 290, isobutyl ((1R,4r)-4-((2-(3-cyanopyrrolo[1,2-b]pyridazin-7-yl)-5-(((R)-2-fluoro-3-hydroxy-3-methylbutyl)carbamoyl)pyridin-4-yl)amino)cyclohexyl)carbamate] | – | 121 nM | 1 nM | –
24 | CC(C)(C#N)c1ccc(Nc2cc(-c3ccc4cc(C#N)cnn34)ncc2C(=O)NC[C@@H](F)C(C)(C)O)cn1 [Example 683, (R)-4-((6-(2-cyanopropan-2-yl)pyridin-3-yl)amino)-6-(3-cyanopyrrolo[1,2-b]pyridazin-7-yl)-N-(2-fluoro-3-hydroxy-3-methyl-butyl)nicotinamide] | 1 nM | 45 nM | – | –
25 | CC1(C)CC(Nc2cc(-c3ccc4cc(C#N)cnn34)ncc2C(=O)NC[C@@H](F)C(C)(C)O)CCO1 (stereo partly drawn) [Example 81, 6-(3-cyanopyrrolo[1,2-b]pyridazin-7-yl)-4-((2,2-dimethyltetrahydro-2H-pyran-4-yl)amino)-N-((R)-2-fluoro-3-hydroxy-3-methylbutyl) nicotinamide] | – | 134 nM | 1 nM | –
26 | N#Cc1cnn2c(-c3cc(NC45CCC(O)(CC4)CC5)c(C(=O)NCc4ncco4)cn3)ccc2c1 [Example 621, 6-(3-cyanopyrrolo[1,2-b]pyridazin-7-yl)-4-((4-hydroxybicyclo[2.2.2]octan-1-yl)amino)-N-(oxazol-2-ylmethyl) nicotinamide] | 1 nM | 98 nM | – | –

Reference: patent US10336762B2 (priority 2017, dated 2019)
